Test results from patent US11807625B2, “Capsid inhibitors for the prevention of HIV” (Gilead Sciences, Inc., priority 2019, dated 2023).

Experiment: PK of compound of Formula (Ia) after single subcutaneous dose of solution formulations in Wistar Han rats
Format: in vivo
Settings: male, Wistar Han, rat, plasma, sc, 50 mg/kg, Wistar Han rats, SC 50 mg/kg
Experimental: Formulations containing the compound of Formula (Ia), or a pharmaceutically acceptable salt thereof, were prepared as solutions and optionally administered subcutaneously or intramuscularly to rats, rabbits, and/or dogs.
(§1) A solution of about 400 mg/mL of the compound of Formula (Ia) having 19.14 w/w % water, 40.66 w/w % PEG 300, 35.20 w/w % of a sodium salt of a compound of Formula (Ia), and 5.00% ethanol was prepared. The solution was administered subcutaneously to male Wistar Han rats at a dose level of about 50 mg/kg and dose volume of 0.125 mL/kg and the pharmacokinetic (PK) profile was determined.
as §1, with “500” for “400”, “16.64” for “19.14”, “35.36” for “40.66”, “43.00” for “35.20”, “0.1” for “0.125”
(§2) A solution of about 400 mg/mL of the compound of Formula (Ia) having 17.00 w/w % water, 36.40 w/w % PEG 300, 35.20 w/w % of a sodium salt of a compound of Formula (Ia), 5.00 w/w % ethanol, and 6.40 w/w % poloxamer 188 was prepared. The solution was administered subcutaneously to male beagle dogs at a dose level of about 12 mg/kg and male Wistar Han rats at a dose level of about 50 mg/kg. The pharmacokinetic profiles were determined, and the results for dogs are summarized in Table and Table, while the results for rats are summarized in Table and Table below.
as §2, with “500” for “400”, “14.06” for “17.00”, “30.12” for “36.40”
A solution of about 300 mg/mL of the compound of Formula (Ia) having 23.33 w/w % water, 48.99 w/w % PEG 300, 26.47 w/w % of a sodium salt of a compound of Formula (Ia), and 1.21 w/w % poloxamer 188 was prepared. The solution was administered subcutaneously to male beagle dogs at a dose level of about 6 mg/kg and male Wistar Han rats at a dose level of about 50 mg/kg. The pharmacokinetic profiles were determined, and the results for dogs are summarized in Table and Table, while the results for rats are summarized in Table and Table below.
as §2, with “18.80” for “17.00”, “40.25” for “36.40”, “34.38” for “35.20”, “1.57” for “6.40”
as §2, with “500” for “400”, “16.29” for “17.00”, “34.88” for “36.40”, “41.92” for “35.20”, “1.91” for “6.40”
A solution of about 400 mg/mL of the compound of Formula (Ia) having 20.90 w/w % water, 44.72 w/w % PEG 300, and 34.38 w/w % of a sodium salt of a compound of Formula (Ia) was prepared. […]

[1] = 400 mg/mL solution AA (6.25% poloxamer 188), Mean n = 4
[2] = 400 mg/mL solution W (5.00% ethanol, 1.57% poloxamer 188), Mean n = 3
[3] = 400 mg/mL solution W (5.00% ethanol, 1.57% poloxamer 188), animals #1-#3
[4] = 400 mg/mL solution Y (water, PEG 300), Mean n = 4
[5] = 400 mg/mL solution Y (water, PEG 300), animals #1-#4
[6] = 400 mg/mL solution Z (3.13% poloxamer 188), Mean n = 4
[7] = 400 mg/mL solution Z (3.13% poloxamer 188), animals #1-#4
[8] = 400 mg/mL solution Z (3.13% poloxamer 188), Mean (#2 NS)
[9] = 400 mg/mL solution Z (3.13% poloxamer 188), animals #1, #3, #4 (#2 NS)
[10] = 500 mg/mL solution X (5.00% ethanol, 1.91% poloxamer 188), Mean n = 3
[11] = 500 mg/mL solution X (5.00% ethanol, 1.91% poloxamer 188), animals #1-#3

CC(C)(C#Cc1ccc(-c2ccc(Cl)c3c(NS(C)(=O)=O)nn(CC(F)(F)F)c23)c([C@H](Cc2cc(F)cc(F)c2)NC(=O)Cn2nc(C(F)(F)F)c3c2C(F)(F)[C@@H]2C[C@H]32)n1)S(C)(=O)=O [compound of Formula (Ia)]
concentration at 2016 h [1]: 78.2 nM | concentration at 2352 h [1]: 75.4 nM | concentration at 2688 h [1]: 74.6 nM | concentration at 3024 h [1]: 69.8 nM | concentration at 3360 h [1]: 64.1 nM | concentration at 3696 h [1]: 65.7 nM | concentration at 1 h [2]: 30.6 nM | concentration at 3 h [2]: 53.4 nM | concentration at 8 h [2]: 76.9 nM | concentration at 24 h [2]: 120 nM | concentration at 24 h [3]: 127 nM | concentration at 48 h [2]: 152 nM | concentration at 48 h [3]: 128 nM | concentration at 72 h [2]: 152 nM | concentration at 72 h [3]: 112 nM | concentration at 96 h [2]: 138 nM | concentration at 96 h [3]: 98.6 nM | concentration at 168 h [2]: 118 nM | concentration at 168 h [3]: 80 nM | concentration at 336 h [2]: 171 nM | concentration at 336 h [3]: 123 nM | concentration at 504 h [2]: 248 nM | concentration at 504 h [3]: 194 nM | concentration at 672 h [2]: 261 nM | concentration at 672 h [3]: 217 nM | concentration at 840 h [2]: 290 nM | concentration at 840 h [3]: 273 nM | concentration at 1008 h [2]: 239 nM | concentration at 1008 h [3]: 176 nM | concentration at 1344 h [2]: 305 nM | concentration at 1344 h [3]: 260 nM | concentration at 1680 h [2]: 261 nM | concentration at 1680 h [3]: 206 nM | concentration at 2016 h [2]: 201 nM | concentration at 2016 h [3]: 163 nM | concentration at 2352 h [2]: 162 nM | concentration at 2352 h [3]: 164 nM | concentration at 2688 h [2]: 173 nM | concentration at 2688 h [3]: 170 nM | concentration at 3024 h [2]: 131 nM | concentration at 3024 h [3]: 145 nM | concentration at 3360 h [2]: 129 nM | concentration at 3360 h [3]: 151 nM | concentration at 3696 h [2]: 107 nM | concentration at 3696 h [3]: 133 nM | concentration at 4032 h (400 mg/mL solution W (5.00% ethanol, 1.57% poloxamer 188), 4032 h, Mean n = 3): 97.5 nM | concentration at 4704 h (400 mg/mL solution W (5.00% ethanol, 1.57% poloxamer 188), 4704 h, Mean n = 3): 57.9 nM | concentration at 1 h [4]: 28.6 nM | concentration at 1 h [5]: 28.7 nM | concentration at 3 h [4]: 52.2 nM | concentration at 3 h [5]: 51.3 nM | concentration at 8 h [4]: 65.8 nM | concentration at 8 h [5]: 62.1 nM | concentration at 24 h [4]: 93.2 nM | concentration at 24 h [5]: 72.1 nM | concentration at 48 h [4]: 110 nM | concentration at 48 h [5]: 83 nM | concentration at 72 h [4]: 109 nM | concentration at 72 h [5]: 87.1 nM | concentration at 96 h [4]: 95.3 nM | concentration at 168 h [4]: 85.7 nM | concentration at 336 h [4]: 103 nM | concentration at 504 h [4]: 131 nM | concentration at 672 h [4]: 151 nM | concentration at 840 h [4]: 158 nM | concentration at 1008 h [4]: 162 nM | concentration at 1344 h [4]: 159 nM | concentration at 1680 h [4]: 132 nM | concentration at 2016 h [4]: 117 nM | concentration at 2352 h [4]: 118 nM | concentration at 2688 h [4]: 119 nM | concentration at 3024 h [4]: 105 nM | concentration at 3360 h [4]: 95.2 nM | concentration at 3696 h [4]: 90.4 nM | concentration at 1 h [6]: 41.7 nM | concentration at 3 h [6]: 70.3 nM | concentration at 8 h [6]: 85.9 nM | concentration at 24 h [6]: 144 nM | concentration at 48 h [6]: 165 nM | concentration at 72 h [6]: 163 nM | concentration at 96 h [6]: 147 nM | concentration at 168 h [6]: 135 nM | concentration at 336 h [6]: 169 nM | concentration at 504 h [6]: 166 nM | concentration at 672 h [6]: 172 nM | concentration at 672 h [7]: 163 nM | concentration at 840 h [6]: 174 nM | concentration at 1008 h [6]: 164 nM | concentration at 1008 h [7]: 137 nM | concentration at 1344 h [6]: 138 nM | concentration at 1344 h [7]: 113 nM | concentration at 1680 h [6]: 127 nM | concentration at 1680 h [7]: 108 nM | concentration at 2016 h [6]: 127 nM | concentration at 2016 h [7]: 111 nM | concentration at 2352 h [6]: 127 nM | concentration at 2352 h [7]: 101 nM | concentration at 2688 h [6]: 141 nM | concentration at 2688 h [7]: 118 nM | concentration at 3024 h [6]: 133 nM | concentration at 3024 h [7]: 110 nM | concentration at 3360 h [8]: 133 nM | concentration at 3360 h [9]: 109 nM | concentration at 3696 h [8]: 135 nM | concentration at 3696 h [9]: 91.2 nM | concentration at 1 h [10]: 46.8 nM | concentration at 3 h [10]: 77.6 nM | concentration at 3 h [11]: 89 nM | concentration at 8 h [10]: 96.2 nM | concentration at 8 h [11]: 115 nM | concentration at 24 h [10]: 184 nM | concentration at 24 h [11]: 164 nM | concentration at 48 h [10]: 209 nM | concentration at 48 h [11]: 209 nM | concentration at 72 h [10]: 199 nM | concentration at 72 h [11]: 207 nM | concentration at 96 h [10]: 187 nM | concentration at 96 h [11]: 193 nM | concentration at 168 h [10]: 176 nM | concentration at 168 h [11]: 204 nM | concentration at 336 h [10]: 233 nM | concentration at 336 h [11]: 269 nM | concentration at 504 h [10]: 270 nM | concentration at 504 h [11]: 311 nM | concentration at 672 h [10]: 270 nM | concentration at 672 h [11]: 312 nM | concentration at 840 h [10]: 294 nM | concentration at 840 h [11]: 361 nM | concentration at 1008 h [10]: 235 nM | concentration at 1008 h [11]: 209 nM | concentration at 1344 h [10]: 272 nM | concentration at 1344 h [11]: 314 nM | concentration at 1680 h [10]: 247 nM | concentration at 1680 h [11]: 206 nM | concentration at 2016 h [10]: 193 nM | concentration at 2016 h [11]: 161 nM | concentration at 2352 h [10]: 158 nM | concentration at 2352 h [11]: 111 nM
